Laboratory results: patent US10835516B2, “Protective, anti-inflammatory receptor and its use in preservation of mitochondrial function, wound healing and repair” (The Johns Hopkins University, priority 2011, dated 2020)
Positions count from the first letter of the chain named.

Experiments:
[1] = molecular target: T1, mtAT2R (Rattus norvegicus, UniProt P35351); test: Mitochondrial respiration, isolated rat heart mitochondria (Seahorse XF96); format: biochemical
T1 construct: we examined effects on respiration in rat heart mitochondria; from tissue; host or cells: isolated rat heart or liver mitochondria
T1 sequence (P35351 1-363): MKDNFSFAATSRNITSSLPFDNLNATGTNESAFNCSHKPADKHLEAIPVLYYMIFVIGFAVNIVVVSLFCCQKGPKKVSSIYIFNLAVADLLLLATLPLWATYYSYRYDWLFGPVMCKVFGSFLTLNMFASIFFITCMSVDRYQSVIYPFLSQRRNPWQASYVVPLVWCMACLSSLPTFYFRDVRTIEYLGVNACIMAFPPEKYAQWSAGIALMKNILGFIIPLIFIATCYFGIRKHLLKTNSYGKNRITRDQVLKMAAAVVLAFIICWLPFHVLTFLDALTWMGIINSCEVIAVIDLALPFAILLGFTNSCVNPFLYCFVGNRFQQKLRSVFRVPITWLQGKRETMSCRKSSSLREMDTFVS
Experimental: Mitochondrial Respiration. For monitoring respiration, isolated mitochondria from rat heart or liver (10 μg of protein per well) were aliquoted into 96 wells of a polyethyleneimine-coated XF96 cell culture microplate (Seahorse Bioscience). The plate was centrifuged at 3,000×g for 10 minutes at 4° C. in an A-4-62 rotor, which control experiments determined caused an attachment of isolated mitochondria that was sufficiently robust to withstand the mixing protocols of the machine. Mitochondria were placed in 300 μL per well of mitochondrial buffer [20 mM Hepes, 137 mM KCl, 2.5 mM MgCl2, 2 mM K2HPO4, 0.5 mM EGTA, and 0.2% (wt/vol) BSA (pH 7.3) at 37° C.]J. Plates were used immediately. The cell culture microplate was incubated and loaded into the Seahorse XF96 extracellular flux analyzer following the manufacturer's instructions. All experiments were performed at 37° C.
Oxygen consumption rate data points refer to the mean rates during the measurement cycles, which consisted of a mixing time of 30 s and a wait time of 2 minutes followed by a data acquisition period of 10 minutes (50 data points). […] The oxygen consumption rates were determined by using a compartment model-based deconvolution algorithm, which compensated for oxygen diffusion phenomena occurring around the entrapped volume and for the response time of the probe. […]

[2] = molecular target: T2, mtAT2R (Mus musculus, UniProt P35374); test: NO production in isolated kidney mitochondria (NO fluorescent probe); format: biochemical; conditions: PD-123319 1 μM; P<0.01
T2 construct: from tissue; host or cells: isolated kidney mitochondria
T2 sequence (P35374 1-363): T1 sequence (P35351 1-363) with L18R, A40S, V88L, S352G
Experimental: Measurement of Nitric Oxide (NO) Production in Isolated Mitochondria. Kidney mitochondria were isolated by homogenization and differential centrifugation in a medium containing […] of 1 M sucrose, 12 mL of 1 M mannitol, 2.5 mL of 1 M KCL, 1 M Tris-HCL, 0.5 mL of 1 M EDTA, 1.5 mL of 0.1 M EGTA, and 0.1% BSA (pH 7.4). Mitochondria were suspended in incubation solution. Total mitochondrial protein was determined by a Lowry Protein Assay Kit (Sigma-Aldrich). […] The fluorescent products were measured by using a reader equipped with Cyanine 5 (650/670 nm).
AT2Rs Modulate Mitochondrial NO Production. To determine whether mtAT2R activation might modulate mitochondrial NO production in a manner analogous to the actions of non-mtAT2Rs on other NO isoforms, the direct effects of AT2R agonists and antagonists were determined on isolated kidney mitochondria. […] Fluorescence signal was measured by using a multimode microplate reader equipped with Cyanine 5 (650/670 nm). Treatment of mitochondria with CGP421140 caused a concentration-dependent increase in mitochondrial NO production (FIG. 6A); specifically, 10 nM was sufficient to stimulate NO production [from 0.52±0.0009 fluorescence arbitrary units (AU) at baseline control to 0.6+0.01 AU, P<0.001]. […]

[3] = system: mtAT1R; test: Immunoelectron microscopy of mtAT1R in kidney tubular cells of aged mice on chronic losartan; format: in vivo, C57BL/6 mice; conditions: 70-wk-old mice, losartan 40-60 mg/kg per day for 20 wk; aged untreated 12.7+5.8, young 2.0+2.2
Experimental: (§1) Immunolocalization of AT1R, AT2R, and Ang. Immunogold electron microscopy was performed as described (Am. J. Physiol. Endocrinot. Metab., 286:E1011-E1022 (2004)). In brief, mouse tissues were fixed in 4% formaldehyde in 0.1 M sodium cacodylate supplemented with 3% sucrose (wt/vol) and 3 mM CaCl2 and cryoprotected in 2.3 M sucrose overnight in polyvinylpyrrolidone (Sigma). Ultrathin sections were cut on a Leica Ultracut UCT microtome, and sections were placed on Formvar-coated nickel 200-mesh hexagonal grids. The sections were incubated in primary antibody against rabbit anti-AT2R, goat anti-Ang, or goat anti-AT1R antibody overnight at 4° C. at a concentration of 10 μg/mL. […] Primary antibodies were detected with either 6-nm colloidal gold donkey anti-goat or 12-nm colloidal goat anti-rabbit (Jackson ImmunoResearch) diluted 1:20 in PBS for 1 hour. Final contrasting of the sections was done by incubating them in 2% methyl cellulose (Sigma) and 0.3% uranyl acetate (Ted Pella) for 10 min at 4° C. All sections were viewed with a Philips CM 120 TEM transmission electron microscope at an accelerating voltage of 80 kV. Images were taken with a Gatan Orius SC 1000 digital camera. Photographs for representative sections were taken.

[4] = system: wounds; test: Wound healing in db/db mice, losartan started at different phases; format: in vivo, BKS.Cg-m+/+Lepr^db/J(db/db) mice; conditions: 8 week old db/db mice; preliminary data
Text: In order to provide additional rationale for using losartan ointment at day 7 of wound treatment, preliminary data was developed on the effects of losartan on all phases of wound healing in 8 week old BKS.Cg-m+/+Lepr^db/J(db/db) mice (FIGS. 11, 12).

[5] = system: mtAT2R; test: Immunoelectron microscopy of mtAT2R in kidney tubular cells of aged mice on chronic losartan; format: in vivo, C57BL/6 mice; conditions: 70-wk-old mice, losartan 40-60 mg/kg per day for 20 wk; aged untreated 10.2+2.2, young 25.5+6.2
Experimental: as §1

[6] = Blood pressure and general health of mice on chronic losartan
Experimental: Human and Animal Groups. Mitochondria were studied in adult human monocytes (20-30 y old), adult human skeletal muscle tissue, adult rats (24 wk old), adult (20 wk old) and aged (70 wk old) mice, and a human cell line. Adult mice at 50 wk of age were treated with the AT1R blocker losartan at doses of 40-60 mg/kg per day for 20 wk. All experiments were approved by the Johns Hopkins Animal Care and use Committee and the Johns Hopkins Institutional Review Board. Weight, blood urea nitrogen, creatinine, and albumin were measured in adult (20 wk) and aged (70 wk) mice and in aged mice on losartan treatment. […] We visually inspected each animal carcass after the dissection for any abnormalities.

[7] = system: 8-mm excisional wounds; test: Full thickness excisional wound healing, daily topical cream; format: in vivo, mice; conditions: after three days of treatment, FIG. 8
Experimental: For wound-healing experiments, animal procedures were approved by the Johns Hopkins University Animal Care and Use Committee. During the experiments the animals were-housed one per cage, maintained under controlled environmental conditions (12 hours light to dark cycle, temperature approximately 23° C.), and provided with standard laboratory food and water ad libitum. 16 male mice with average weight of 30 g were divided into two groups. Mice were anesthetized with ketamine hydrochloride (100 mg/kg) and xylazine (10 mg/kg), and the dorsum was shaved and then treated with a depilatory (Nair cream, Church & Dwight Co., Princeton, N.J.). Two symmetrical full thickness excisional wounds created on their back using an 8-mm punch biopsy instrument. No dressing was used after burn. The animals were resuscitated according to the Parkland formula (4 mL/kg/percent body area) by intraperitoneal injection of saline within 1 hour after wound. Animals were divided into two groups; A and B. One group received daily application of an angiotensin receptor blocker cream to both wounds per animal and the other received vehicle. Researchers were blinded to the identity of the cream applied. We used digital photography and computerized planimetry to assess the rate of wound healing in either group.

COC(=O)[C@@H](N)CCCNC(=N)N[N+](=O)[O-] [L-NAME, L-N^G-nitroarginine methyl ester]
CGP421140-inhibited state 3 respiration reversed by L-NAME ([1]; 100 nM CGP421140 + L-NAME 1 μM, P<0.05): 67.4±4.3 pmol/min per μg

Cc1cc(Cn2cnc3c2C[C@@H](C(=O)O)N(C(=O)C(c2ccccc2)c2ccccc2)C3)ccc1N(C)C [PD-123319]
CGP421140-stimulated NO production after pretreatment with PD-123319 [2]: 0.55±0.006 AU
CGP421140-inhibited state 3 respiration restored by PD-123319 ([1]; 100 nM CGP421140 + PD-123319 1 μM, P<0.01): 66.83±2.1 pmol/min per μg

CCCCc1nc(Cl)c(CO)n1Cc1ccc(-c2ccccc2-c2nn[nH]n2)cc1 [losartan]
mtAT1R expression [3]: 11.0+2.1 gold-labeled AT1R per mitochondrion
healing and elasticity, treatment starting at day 7 compared to day 1 [4]: accelerated healing and improved elasticity
mtAT2R expression [5]: 39.0+2.6 gold-labeled AT2R per mitochondrion
evidence of malignancy on carcass inspection ([6]; 10 animals per group): did not observe any evidence of malignancy
weight, blood urea nitrogen, creatinine, and albumin ([6]; adult, aged and aged mice on losartan, data not shown): no significant difference
decrease in blood pressure ([6]; losartan 40-60 mg/kg per day for 20 wk): 10-15%
wound granulation versus vehicle [7]: more granulation
